Measurements published in patent US10052387B2, “Ceramide reversal of multi-drug resistance” (Memorial Sloan-Kettering Cancer Center, priority 2013, dated 2018).

B1: sphingomyelinase: exogenous bacterial sphingomyelinase used to generate endogenous ceramide (protein, UniProt P09599 28-333, looked up)
Sphingomyelinase C: DTSTDQNNTLKVMTHNVYMLSTNLYPNWGQSQRADLIGAADYIKNQDVVILNEVFDNSASDRLLGNLKKEYPNQTAVLGRSNGNEWDKTLGSYSSSTPEDGGVAIVSKWPIVEKIQYVFAKGCGPDNLSNKGFVYTKIKKNDRFVHVIGTHLQAEDSMCGKTSPASVRTNQLKEIQDFIKNKNIPNDEYVLFGGDMNVNKINAENNSDSEYASMFKTLHASIPSYTGHTATWDATTNSIAKYNFPDSPAEYLDYIIASKDHANPSFIENKVLQPKSPQWTVTSWLKKYTYDDYSDHYPVAATISMK

Experiments:
ADX cells [1] = experiment: MTT cell survival assay in MDR ADX cells; format: cell-based, Chinese hamster; conditions: for EC50: Cricetulus griseus; for chemosensitization of ADX cells by sphingomyelinase: exogenous sphingomyelinase, data not shown; for enhanced cell kill: ADX MDR cells with daunorubicin
Experimental: (§1) A, time course of sphingomyelin changes in DC-3F and ADX cells after B. cereus SMase (0.05 U/mL) treatment. B, time course of ceramide generation. C, DC-3F and ADX cells were treated with increasing doses of B. cereus SMase (0-2 U/mL) and cell survival was measured by MTT (3-(4,5-dimethylthiazol-2-yl)-2,5-diphenyltetrazolium bromide) tetrazolium reduction (MTT) assay. D, Cells were seeded in 96-well plates (2×10^3 cells/well) in a 0.1 ml DME:F12 medium containing 5% FBS and cultured at 37° C. for 24 hours before addition of daunorubicin.
(§2) A, DC-3F and ADX cells were treated with increasing doses of daunorubicin. B, DC-3F and ADX cells were incubated with B. cereus SMase (0.0-0.05 U/ml) and treated with daunorubicin for 1 day. Cell survival was measured by MTT assay. Data are from one representative of three independent studies.

DC-3F cells = experiment: MTT cell survival assay in parental DC-3F cells; format: cell-based, Chinese hamster
Experimental: as §1, §2

ADX cells [2] = experiment: Daunorubicin trafficking into the nucleus of ADX cells (confocal microscopy); format: cell-based, Chinese hamster; conditions: for percent of ADX cells displaying nuclear daunorubicin: Mean ± 95% CI
Experimental: ADX cells were grown on 4-well slides, 20 uM daunorubicin was added for […], followed by various dose of liposomes containing C16:0 ceramide, sphingomyelin, C16:0 dihydroceramide or phosphatidylcholine for 1 h. Cells were examined under Leica SP-5 inverted confocal microscope. Y axis represents percent of cells with nuclear drug.
ADX cells were grown on 4-well slides. 3.5×10^4 ADX cells were incubated with 20 μM daunorubicin in DMEM HG:F-12 medium without serum. After 2 hours, at which time daunorubicin had reached steady state accumulation in cytoplasmic vesicles, liposomes containing long and very long chain ceramides were added to cells at 0, 1, 2, and 5 μM. After a 1 hour-incubation at 37° C., nuclear localization of daunorubicin was determined by confocal microscopy. Cells were examined under Leica SP-5 inverted confocal microscope. Y axis represents percent of cells with nuclear drug.

[3] = Doxorubicin MTD studies in mice; conditions: mouse, in vivo, intravenous, 8 mg/kg
Source text: Methods: Liposome Delivery, MTD, PK: Liposomes and free doxorubicin are delivered intravenously and MTD and PK determined in accordance with known protocols.

[4] = ×4 doses/25 g mouse; cited from earlier work
DC-3F tumor = experiment: DC-3F flank tumor response to doxorubicin; format: in vivo, athymic nude mice; conditions: 8 mg/kg×3
Experimental: (§3) Tumors were created in the right flanks of athymic nude mice using 5×10^6 DC-3F cells or ADX cells and at tumor volumes of 100-150 mm^3 were treated with Doxorubicin 8 mg/kg i.v. weekly (arrows) for 3 weeks. Tumor volumes were measured daily according to the formula of Kim et al. (Cancer Res 1986: 46, 1120) for 3 months. Collated data in upper panels represent mean±SEM. Data in lower panels represent individual tumor patterns.

ADX tumor = experiment: ADX MDR flank tumor response; conditions: 8 mg/kg×3
Experimental: as §3
5×10^6 ADX cells were implanted into athymic nude mice by s.c. injection. Treatment was started on day 21 when tumor was 100 mm^3. 8 mg/kg Dox (arrows) was injected i.v. every 7 days followed by 1 μmol/mouse liposomal C16:0 ceramide for a total of 3 treatments (total Dox=24 mg/kg, the MTD in mice). Left panel of A) represents individual tumor growth with Dox alone. Right panel of A) represents tumor response when treated with Dox+1 μmol/mouse liposomal ceramide. Panel B is mean tumor growth response of Dox alone and combined treatment.
ADX flank tumors (in athymic Nude-FoxN1 nu mice) were loaded to isotopic steady state for 1 h by systemic administration of Dox (20 mg/kg), and 1 μmol of C16:0 ceramide containing liposomes/mouse was injected i.v. Mice were sacrificed 1 h thereafter, and tumors snap frozen in OCT at −80° C.

Row | Molecule | percent of ADX cells displaying nuclear daunorubicin (ADX cells [2]; ceramide 1 μM) | percent of ADX cells displaying nuclear daunorubicin (ADX cells [2]; ceramide 2 μM) | percent of ADX cells displaying nuclear daunorubicin (ADX cells [2]; ceramide 5 μM) | further results
1 | COc1cccc2c1C(=O)c1c(O)c3c(c(O)c1C2=O)C[C@@](O)(C(C)=O)C[C@@H]3O[C@H]1C[C@H](N)[C@H](O)[C@H](C)O1 [daunorubicin] |  |  |  | EC50 (ADX cells [1]; ADX cells treated with increasing doses of exogenous sphingomyelinase): 4 µM; EC50 (ADX cells [1]; ADX cells, without sphingomyelinase): 92 µM; EC50 (DC-3F cells; Cricetulus griseus, DC3F, parental DC-3F cells): 0.8 µM
2 | CCCCCCCCCCCCC/C=C/[C@@H](O)[C@H](CO)NC(=O)CCCCCCC [C8:0] | 11.4 ± 1.9% | 19.8 ± 2.1% | 35.5 ± 2.4% | 
3 | COc1cccc2c1C(=O)c1c(O)c3c(c(O)c1C2=O)C[C@@](O)(C(=O)CO)C[C@@H]3O[C@H]1C[C@H](N)[C@H](O)[C@H](C)O1 [doxorubicin] |  |  |  | MTD at 3 weeks [3]: 24 mg/kg; published MTD [4]: about 9 mg/kg; tumor response to doxorubicin (DC-3F tumor): sensitive; tumor response to doxorubicin (ADX tumor): totally resistant
4 | CCCCCCCCCCCCC/C=C/[C@@H](O)[C@H](CO)NC(=O)CCCCCCCCCCC [C12:0] | 8.9 ± 3.0% | 18.8 ± 3.2% | 22.3 ± 3.1% | 
5 | CCCCCCCCCCCCC/C=C/[C@@H](O)[C@H](CO)NC(C)=O [C2:0] | 7.5 ± 2.5% | 12.5 ± 3.3% | 7.0 ± 1.6% | 
6 | CCCCCCCCCCCCC/C=C/[C@@H](O)[C@H](CO)NC(=O)CCCCCCCCC [C10:0] | 6.8 ± 2.2% | 13.1 ± 2.8% | 20.0 ± 2.4% | 
7 | CN[C@@H]1C[C@H]2O[C@@](C)([C@@H]1OC)n1c3ccccc3c3c4c(c5c6ccccc6n2c5c31)C(=O)NC4 [staurosporine] |  |  |  | chemosensitization of ADX cells by sphingomyelinase (ADX cells [1]): no sensitization was achieved
8 | CC[C@]1(O)C[C@H]2CN(CCc3c([nH]c4ccccc34)[C@@](C(=O)OC)(c3cc4c(cc3OC)N(C=O)[C@H]3[C@@](O)(C(=O)OC)[C@H](OC(C)=O)[C@]5(CC)C=CCN6CC[C@]43[C@@H]65)C2)C1 [vincristine] |  |  |  | chemosensitization of ADX cells by sphingomyelinase (ADX cells [1]): chemosensitization of ADX cells was also achieved
9 | CCCCCCCCCCCCC/C=C/[C@@H](O)[C@H](CO)NC(=O)CCC [C4:0] | 8.0 ± 2.4% | 11.9 ± 2.7% | 13.0 ± 2.1% | 
10 | N.N.[Cl][Pt][Cl] [cis-platinum] |  |  |  | chemosensitization of ADX cells by sphingomyelinase (ADX cells [1]): chemosensitization of ADX cells was also achieved
11 | CCCCCCCCCCCCC/C=C/[C@@H](O)[C@H](CO)NC(=O)CCCCCCCCCCCCCCC [C16:0, N-palmitoyl (C16:0) ceramide] | 13.9 ± 1.7% | 24.3 ± 2.0% | 48.3 ± 2.7% | enhanced cell kill (ADX cells [1]): 25 fold; trafficking of daunorubicin into the nucleus (ADX cells [2]; ADX cells pre-loaded with 20 μM daunorubicin): nuclear transfer occurred only with C16:0 ceramide treatment
12 | CCCCCCCCCCCCC/C=C/[C@@H](O)[C@H](CO)NC(=O)CCCCC [C6:0] | 8.8 ± 2.4% | 12.2 ± 2.0% | 16.2 ± 2.3% | 
13 | CCCCCCCCCCCCC/C=C/[C@@H](O)[C@H](CO)NC(=O)CCCCCCCCCCCCC [C14:0] | 7.4 ± 2.4% | 17.6 ± 3.4% | 23.4 ± 3.2% | 
14 | B1 |  |  |  | enhanced cell kill (ADX cells [1]): 25 fold; effect of sphingomyelinase treatment on DC-3F cells (DC-3F cells; daunorubicin sensitivity): unaffected
